{"source": "patent US7862836B2", "about": "“Phosphorus binder for treatment of kidney disease” (Biolink Life Sciences, Inc., priority 2005, dated 2011)", "key": {"Stability during storage": {"experiment": "Stability during storage", "format": "physicochemical"}, "[1]": {"details": "Sheikh et al., cited from earlier work; for Observed in vitro Pi Binding, %: pH 6.0"}, "[2]": {"details": "mean of triplicate", "experimental": "The pH of each solution was adjusted to the desired value by the addition of concentrated hydrochloric acid or sodium hydroxide, as appropriate.\nThe separation was performed on a Dionex AS11 Cation-Exchange HPLC column integrated with an Agilent Series 1100 HPLC system, and detection of the anionic species was enabled using a Dionex ED50 Electrochemical Detector, operating in Conductivity Mode. Limits of Detection and Quantitation were enhanced through the use of a Dionex Anion Self-Regenerating Suppressor. After assay-specific development and verification of assay performance were completed, the analysis of phosphate and succinate or acetate was performed by sampling the test solution and diluting it, if necessary, to a concentration within the linear range of the Assay. The sample was then injected onto the HPLC column and eluted with a sodium hydroxide gradient. Data were acquired using Agilent ChemStation® software.\nThe test or control binder was dissolved in deionized water to a volume of 30 mL. The binder solution was added to the phosphorus solution to give a final volume of 600 mL. For each binder study, the phosphorus solutions were titrated by addition of concentrated HCl or NaOH to two different initial pH levels: 4 and 6. […] This was expressed as percent of the total phosphorus present in the original solution. […]"}, "[3]": {"test_system": "parathyroid hormone (PTH) secretion", "details": "maintenance dialysis patients; cited from earlier work"}, "[4]": {"details": "cited from earlier work"}, "[5]": {"details": "cited from earlier work", "remark": "listed apart in the source"}, "[6]": {"details": "in many patients; cited from earlier work"}, "[7]": {"experiment": "Solubility in water of cationic phosphate binders (Table 1)"}, "[8]": {"details": "600 mg oral, cited from earlier work"}, "[9]": {"details": "cited from earlier work; for Fractional phosphorus absorption / Net phosphorus absorption: mean ± SE"}, "[10]": {"details": "hemodialysis or peritoneal dialysis patients; cited from earlier work"}}, "note": "Like-named read-outs stand apart in the source and are kept apart here.", "data": [{"compound": "O=C(O)CCCC[C@@H]1CCSS1", "note": "[(R)-(+)-lipoic acid]", "values": [{"measurement": "stability during storage", "setting": "Stability during storage", "result": "even more unstable during storage"}]}, {"compound": "O=C([O-])CC(O)(CC(=O)[O-])C(=O)[O-].O=C([O-])CC(O)(CC(=O)[O-])C(=O)[O-].[Ca+2].[Ca+2].[Ca+2]", "note": "[Calcium Citrate]", "values": [{"measurement": "Observed in vitro Pi Binding, %", "setting": "[1]", "result": 10, "unit": "%"}, {"measurement": "Observed in vitro Pi Binding", "setting": "[1]; pH 6.5", "result": "20% at pH 6.5 (NOTE 2)"}]}, {"compound": "O=C([O-])CCC(=O)[O-].[Ca+2]", "note": "[Calcium Succinate]", "values": [{"measurement": "Observed in vitro Pi Binding, %", "setting": "[2]; pH 4.0", "result": 59.4, "unit": "%"}, {"measurement": "Observed in vitro Pi Binding, %", "setting": "[2]; pH 6.0", "result": 94.0, "unit": "%"}]}, {"compound": "[Mg+2].[OH-].[OH-]", "note": "[Magnesium Hydroxide]", "values": [{"measurement": "suppressing parathyroid hormone (PTH) secretion", "setting": "[3]", "result": "Neither the combination of oral calcium carbonate/magnesium hydroxide nor magnesium hydroxide alone was effective"}, {"measurement": "serum Pi levels", "setting": "[4]; avg 734 mg elemental Mg/day, 3-5 weeks, control (no binders) 9.0 mg/dL", "result": 8.1, "unit": "mg/dL"}, {"measurement": "mean serum Mg levels", "setting": "[4]; avg 734 mg elemental Mg/day, dialysate Mg 1.2 to 1.8 mg/dl", "result": 4.32, "unit": "mg/dL"}, {"measurement": "patients who developed diarrhea", "setting": "[4]; nine hemodialysis patients", "result": "Four of nine"}, {"measurement": "serum Pi levels", "setting": "[5]; avg 991 mg elemental Mg daily, dialysate lacking Mg, rose from 4.3", "result": 6.1, "unit": "mg/dL"}, {"measurement": "serum Mg level (average)", "setting": "[5]; during Mg(OH)2 treatment", "result": 4.3, "unit": "mg/dL"}, {"measurement": "severe hyperkalemia", "setting": "[6]", "result": "≤ 8", "unit": "mEq/L"}]}, {"compound": "[O]=[Mg]", "note": "[Magnesium Oxide]", "values": [{"measurement": "Hydrophile?", "setting": "[7]", "result": "No"}]}, {"compound": "O=C(O)CCCCC1CCSS1", "note": "(centres unmarked) [lipoic acid, 1,2-dithiolane-3-pentanoic acid]", "values": [{"measurement": "stability during storage", "setting": "Stability during storage", "result": "unstable during storage"}, {"measurement": "safety when ingested by patients with kidney disease", "setting": "[8]", "result": "safe"}, {"measurement": "pharmacokinetics, influence of renal function", "setting": "[8]; severely reduced kidney function or ESRD vs healthy", "result": "not influenced by creatinine clearance"}]}, {"compound": "O=C([O-])CCCC[C@@H]1CCSS1.O=C([O-])CCCC[C@@H]1CCSS1.[Mg+2]", "note": "[magnesium (R)-(+)-lipoate]", "values": [{"measurement": "stability during storage", "setting": "Stability during storage", "result": "stable during storage"}]}, {"compound": "Calcium Gluconate", "values": [{"measurement": "Observed in vitro Pi Binding, %", "setting": "[1]", "result": 90, "unit": "%"}]}, {"compound": "Magnesium Acetate", "values": [{"measurement": "fractional absorption of dietary Pi", "setting": "[9]; 50 mEq of the salt, reduced from 77%", "result": 34, "unit": "%"}, {"measurement": "Pi absorption from ingesta", "setting": "[9]; 77 mEq per os, 75% with placebo, normal subjects", "result": 28, "unit": "%"}, {"measurement": "fractional magnesium absorption", "setting": "[9]; highest magnesium intake", "result": 11, "unit": "%"}, {"measurement": "fractional magnesium absorption", "setting": "[9]; lowest magnesium intake", "result": 65, "unit": "%"}, {"measurement": "Fractional phosphorus absorption", "setting": "[9]; standard meal + 10.2 mEq MgAc", "result": "55.8 ± 2.8", "unit": "%"}, {"measurement": "Net phosphorus absorption", "setting": "[9]; standard meal + 10.2 mEq MgAc", "result": "7.5 ± 0.4", "unit": "mmol"}, {"measurement": "Fractional phosphorus absorption", "setting": "[9]; standard meal + 19.4 mEq MgAc", "result": "47.1 ± 3.4", "unit": "%"}, {"measurement": "Net phosphorus absorption", "setting": "[9]; standard meal + 19.4 mEq MgAc", "result": "6.3 ± 0.5", "unit": "mmol"}, {"measurement": "Fractional phosphorus absorption", "setting": "[9]; standard meal + 39.0 mEq MgAc", "result": "37.0 ± 5.4^|| %"}, {"measurement": "Net phosphorus absorption", "setting": "[9]; standard meal + 39.0 mEq MgAc", "result": "4.8 ± 0.7^|| mmol"}, {"measurement": "Fractional phosphorus absorption", "setting": "[9]; standard meal + 77.2 mEq MgAc", "result": "28.1 ± 4.8^¶ %"}, {"measurement": "Net phosphorus absorption", "setting": "[9]; standard meal + 77.2 mEq MgAc", "result": "3.8 ± 0.6^¶ mmol"}]}, {"compound": "choline magnesium trisalicylate", "values": [{"measurement": "effect on serum Pi levels", "setting": "[10]", "result": "no effect"}]}, {"compound": "magnesium lipoate", "values": [{"measurement": "stability during storage", "setting": "Stability during storage", "result": "stable during storage"}]}]}
